Test results published in patent US12157772B2, “Prophylactic agent, onset-suppressing agent or therapeutic agent for progressive immune demyelinating diseases” (NATIONAL CENTER OF NEUROLOGY AND PSYCHIATRY, priority 2016, dated 2024).

Key:
[1] = test system: Spleen-derived CD19+ B cells; assay: Zbtb20 expression in spleen-derived CD19+ B cells cultured with LPS and various cytokines; type: cell-based, mouse; details: cultured for 24 h in the presence of LPS and cytokine; FIG. 33
Experimental: Spleen-derived CD19^+ B cells were isolated and purified by sorting by FACS using a FACS ARIA II (manufactured by BD Cytometry Systems, Inc.). The purified B cells were cultured for 24 h in the presence of LPS and in the co-presence or absence of each cytokine designated in FIG. 33(a). After the culturing, the expression levels of Zbtb20 gene in the respective cells were measured. As antibodies used at the detection were an anti-CD19 antibody (manufactured by Biolegend, Inc.) and an anti-Zbtb20 antibody (manufactured by Becton Dickinson, Inc.).

[2] = test system: CD19+ B cells or CD19-CD45hi non-B/class II+ antigen-presenting cells; details: CD19+ B cells and CD19-CD45hi non-B class II+ cells; cultured 24, 48 or 96 h with dopamine; FIG. 22
Experimental: CD19^+ B cells or CD19^−CD45^hi non-B/class II^+ antigen-presenting cells were purified from each mouse with the late-stage EAE pathology by sorting by FACS. The respective purified cells were cultured for 24, 48, or 96 h in the absence of dopamine or in the presence of a specific amount of dopamine. Next, the cultured cells were recovered and the prolactin gene (Prl) and Zbtb20 gene expression levels were analyzed by using a quantitative real-time PCR assay.

[3] = test system: NR4A2-deficient mouse in which monophasic EAE had been induced; assay: EAE clinical score in NR4A2-deficient mice with induced monophasic EAE; type: in vivo
Source text: (§1) Into each CD4-Cre/NR4A2^fl/fl mouse in which monophasic EAE had been induced in a similar manner to the above 1.(3), L-dopa or a placebo (DMSO and PBS) was intraperitoneally injected every other day from day 4 after the induction.

[4] = test system: CD4+ T cells, CD19+ B cells, CD19-CD45hi non-B/class II+ antigen-presenting cells infiltrated into the CNS; assay: Eomes and Zbtb20 expression in CNS-infiltrated cells after L-dopa dosing (FACS); type: in vivo, mouse; details: CNS at day 32 after the induction
Source text: as §1
Next, the brain and the spinal cord were collected from each mouse at day 32 after the induction; and CD4^+ T cells, CD19^+ B cells, or CD19^−CD45^hi non-B/class II^+ antigen-presenting cells infiltrated into the CNS were sorted by FACS using a FACS ARIA II (manufactured by BD Cytometry Systems, Inc.). The respective sorted cells were stained and analyzed regarding the Eomes and Zbtb20 gene expressions. As antibodies used at the detection were an anti-CD4 antibody (manufactured by Biolegend, Inc.), an anti-Eomes antibody (manufactured by eBioscience, Inc.), an anti-CD19 antibody (manufactured by Biolegend, Inc.), and an anti-Zbtb20 antibody (manufactured by Becton Dickinson, Inc.).

prolactin gene (Prl) = assay: Prolactin gene (Prl) expression in CNS-derived antigen-presenting cells after L-dopa dosing (quantitative real-time PCR); type: in vivo, mouse; details: CNS-derived B cells and non-B/class II+ antigen-presenting cells; repeated dosing; FIG. 25
Experimental: Next, CD19^+ B cells and CD19^−CD45^hi non-B/class II^+ antigen-presenting cells were separated from the CNS or the spleen of each L-dopa-administered mouse or each intact mouse; and the expression levels of prolactin gene (Prl) in these types of cells were analyzed by using a quantitative real-time PCR assay. As antibodies used at the detection were an anti-CD19 antibody (manufactured by Biolegend, Inc.) and an anti-CD45 antibody (manufactured by Biolegend, Inc.).

[5] = test system: Spleen-derived CD226+CD4+ T cells; assay: Culturing of spleen-derived CD226+CD4+ T cells in co-presence of prolactin, Eomes expression (flow cytometer / quantitative real-time PCR); type: cell-based, mouse
Experimental: Spleen-derived CD226^+CD4^+ T cells collected from each intact wild-type B6 mouse were cultured for 4 h or 8 h in the absence of prolactin or in the presence of each specific amount of prolactin. The Eomes expression levels in the respective cells after the culturing were measured by using a flow cytometer or a quantitative real-time PCR assay. As antibodies used at the detection were an anti-CD4 antibody (manufactured by Biolegend, Inc.) and an anti-Eomes antibody (manufactured by eBioscience, Inc.).

Spleen-derived Th cells = assay: Prolactin addition and Eomes gene expression in spleen-derived Th cells (quantitative real-time PCR); type: cell-based, mouse; details: cultured 8 h; recombinant prolactin at low and high concentration; FIG. 15
Experimental: Spleen-derived Th cells of each intact mouse were cultured for 8 h in the absence or presence of recombinant prolactin. After the culturing, total RNA was extracted from the Th cells. A first strand cDNA synthesis kit (manufactured by Takara Bio Inc.) was used to synthesize cDNA from the total RNA obtained. A Light Cycler instrument was used under conditions using a Light Cycler-Fast Start DNA Master SYBR Green I kit (manufactured by Roche Diagnostics, Inc.) or an ABI 7300 real-time PCR instrument was used under conditions using a Power SYBR Green Master mix (manufactured by Applied Biosystems, Inc.) to perform a quantitative real-time PCR assay by using commercially available primers (QuantiTect Primer Assay, QT01074332; manufactured by Qiagen, Inc.). The Eomes gene expression levels were corrected based on the expression level of a housekeeping gene GAPDH.

[6] = test system: Spleen-derived CD226+ Th cells; assay: Prolactin addition and Eomes protein expression in spleen-derived CD226+ Th cells (FACS); type: cell-based, mouse; details: cultured for 48 h in the presence of prolactin; FIG. 16
Experimental: Spleen-derived CD226^+ Th cells were cultured for 8 h or 48 h in the absence or presence of prolactin. After the culturing, the CD226^+ Th cells were stained with an anti-CD226 antibody and an anti-Eomes antibody, and a FACS CANTO II (manufactured by BD Cytometry Systems, Inc.) was used to analyze CD226^+Eomes^+ T cells, CD226^+ Eomes^− T cells, and CD226^− T cells. As the antibodies used during the analysis were an anti-CD226 antibody (manufactured by Biolegend, Inc.) and an anti-Eomes antibody (manufactured by Biolegend, Inc.).

In the case of IFNα, the “increase in the expression of Zbtb20 gene” value [1] is reported as “the most remarkable”.

NCCc1ccc(O)c(O)c1 [dopamine] was tested, and the “Zbtb20 gene expression levels” value [2] was “decreased markedly” and the “prolactin gene expression levels” value [2] was “decreased markedly”.

For N[C@@H](Cc1ccc(O)c(O)c1)C(=O)O [L-dopa, L-3,4-dihydroxyphenylalanine], the “cumulative EAE scores” value ([3]; intraperitoneally every other day from day 4, right graph of FIG. 23) was “improvement”, the EAE scores ([3]; intraperitoneally every other day from day 4 after the induction, FIG. 23) was “improve markedly” and the “percentage of CD4+Eomes+ T cells in the CD4+ T cells” value ([4]; FIG. 24(a)) was “decrease markedly”. For the same molecule, the “percentage of Zbtb20+ cells in the CD19+ B cells” value ([4]; FIG. 24(b)) was “decrease”, the “percentage of Zbtb20+ cells in the CD19-CD45hi non-B/class II+ antigen-presenting cells” value ([4]; FIG. 24(c)) was “decrease” and the “expression levels of prolactin gene” value (prolactin gene (Prl)) was “decrease”.

B1: prolactin: recombinant prolactin added to Th cell cultures (protein, UniProt P01236 29-227, looked up)
Prolactin: LPICPGGAARCQVTLRDLFDRAVVLSHYIHNLSSEMFSEFDKRYTHGRGFITKAINSCHTSSLATPEDKEQAQQMNQKDFLSLIVSILRSWNEPLYHLVTEVRGMQEAPEAILSKAVEIEEQTKRLLEGMELIVSQVHPETKENEIYPVWSGLPSLQMADEESRLSAYYNLLHCLRRDSHKIDNYLKLLKCRIIHNNNC
B1 was tested, and the “Eomes gene expression level” value ([5]; prolactin at 30 ng/mL, FIG. 8(b)) was “increased”, the “percentage of CD4+Eomes+ T cells” value ([5]; prolactin at 30 or 100 ng/mL, cultured 4 h or 8 h, FIG. 7, 8(a)) was “increased markedly” and the “relative expression level of Eomes relative to that of a housekeeping gene” value (Spleen-derived Th cells) was “increased in a prolactin concentration-dependent fashion”. The Eomes expression levels [6] was “increased more markedly”.
